Patent US12702648B2 (priority 2023, dated 2026)
Converted amounts (≈) assume the structure as drawn.

Experiments:
Format in all cases: cell-based
[1] = tested on: murine macrophage-like RAW 264.7 cells; assay: In vitro cytotoxicity test (MTS), RAW 264.7; conditions: 72 h incubation, AmB concentration
Experimental: (§1) In vitro cytotoxicity test: The cytotoxicity of TDs and AmB loaded nanoparticles (NPs) were studied using murine macrophage-like RAW 264.7 cells and human kidney 293T cells via MTS assays. Briefly, cells were seeded in 96-well plates at a density of 6×10^3 (RAW 264.7) and 3×10^3 (293T) cells per well and incubated overnight (Dulbecco's modified Eagle's medium (DMEM) medium, 5% CO2, 37° C.). TDs or AmB nanoformulations with different concentrations were added into each well to treat the cells. After 72 h incubation, CellTiter 96 AQueous MTS reagent was added to each well according to the manufacturer's instructions. The cell viability was determined by measuring the absorbance at 490 nm using a microplate reader (BioTek Synergy H1) with the untreated cells as negative controls. Results were obtained as the average cell viability of triplicate experiments calculated by a formula of [(ODtreat−ODblank)/(ODcontrol−ODblank)×100%]. Statistical analysis: Statistical analysis was carried out using GraphPad Prism (GraphPad Software, California, USA). One-way analyses of variance (ANOVA) was used for two-group and multiple-group analyses. […] The half maximal inhibitory concentration (IC50) was calculated by nonlinear regression analysis ([Inhibitor] vs. response—Variable slope (four parameters)). The half-life was determined by nonlinear regression analysis (one-phase association).

human kidney 293T cells = assay: In vitro cytotoxicity test (MTS), 293T; conditions: 72 h incubation, AmB concentration
Experimental: as §1

C. albicans (ATCC 10231) = assay: In vitro antifungal activity (MIC, dilution method); conditions: 5×10^6 cells/mL, 24 h at 25° C.
Experimental: In vitro antifungal activity: In order to study the influence of encapsulation of AmB in TDs on the antifungal activity of the drug, the minimal inhibitory concentration (MIC), defined as the lowest concentration inhibiting clearly visible growth of the fungi, was determined by dilution method. The antifungal agents were tested at AmB final concentration range of 0.0125-5 μg/mL. The testing was performed in 96-well plates. Cell suspensions of C. albicans were prepared in Sabouraud's broth and adjusted to a final concentration of 5×10^6 cells/mL (fungal count determined by microscopic counts on a hemocytometer). The 96-well plate was incubated for 24 h at 25° C. and record the lowest concentration of AmB that prevented visible growth of C. albicans.

## C[C@@H]1[C@H](O)[C@@H](C)/C=C/C=C/C=C/C=C/C=C/C=C/C=C/[C@H](O[C@@H]2O[C@H](C)[C@@H](O)[C@H](N)[C@@H]2O)C[C@@H]2O[C@](O)(C[C@@H](O)C[C@@H](O)[C@H](O)CC[C@@H](O)C[C@@H](O)CC(=O)O[C@H]1C)C[C@H](O)[C@H]2C(=O)O [free AmB, Amphotericin B]
[1]
  IC50 (cytotoxicity) to RAW 264.7: 1.8 µg/mL
Human kidney 293T cells
  IC50 (cytotoxicity) to 293T: 4.3 µg/mL
C. albicans (ATCC 10231)
  MIC (minimum inhibitory concentration): 0.05 µg/mL (≈ 0.0541 µM)
